Common to all, as to format: in vivo
Experiment [1] relates to Echinochloa crus-galli (ECHCG). As to the kind of experiment: Biological Example 1 glasshouse screen, post-emergence herbicidal activity. The following applies: 312 h, application rate 250 g/ha, evaluated after 13 days, read-out: ECHCG percentage phytotoxicity. In outline:
(§1)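 Pot-grown seedlings sprayed 1 day after sowing (pre-emergence) or after 8 days' growth (post-emergence) with active ingredient in acetone/water (50:50) plus 0.5% Tween 20; glasshouse at 24/16°C day/night, 14 h light, 65% humidity. Visual % phytotoxicity (0 = no damage, 100 = total damage) scored 13 days after application.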

For experiment [2], the system named is Alopecurus myosuroides (ALOMY). The description is as above. Particulars: 312 h, application rate 250 g/ha, evaluated after 13 days, read-out: ALOMY percentage phytotoxicity. In outline:
as §1

Experiment [3] relates to Echinochloa crus-galli (ECHCG). As to the kind of experiment: Biological Example 2 post-emergence herbicidal activity (comparative data). Particulars: 312 h, read-out: ECHCG percentage phytotoxicity; for pest or weed control at 15.625 g/ha: 15.625 g/ha application rate; for pest or weed control at 62.5 g/ha: 62.5 g/ha application rate. In outline: (§2)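 Post-emergence spray after 8 days' glasshouse growth (24/16°C day/night, 14 h light, 65% humidity), using technical active ingredient in acetone/water (50:50) with 0.5% Tween 20. Visual phytotoxicity scored 13 days later, 0% = no damage to 100% = total damage.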

For experiment [4], the system named is Setaria faberi (SETFA). The description is as above. In outline: as §2
In experiment [5] the test system is Alopecurus myosuroides (ALOMY). The experiment is described as above. The following applies: 312 h, read-out: ALOMY percentage phytotoxicity; for pest or weed control at 15.625 g/ha: 15.625 g/ha application rate; for pest or weed control at 62.5 g/ha: 62.5 g/ha application rate. In outline: as §2
Experiment [6] has as its system Lolium perenne, perennial ryegrass (LOLPE). As to the kind of experiment: Biological Example 3 glasshouse screen, post-emergence herbicidal activity. The following applies: 360 h, 15 DAA, no safener, read-out: LOLPE percentage phytotoxicity. In outline: (§3)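 Post-em spray, 12 d after sowing; a.i.:IF50 1:20 in acetone, diluted in water + 0.2% v/v X-77; no cloquintocet-mexyl. Glasshouse 24/18 or 20/16°C d/n, 16 h light, 65% RH, watered twice daily. Visual % phytotox at 15 DAA.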

Experiment [7] relates to Avena fatua, wild oats (AVEFA). The experiment is described as above. The following applies: 360 h, 15 DAA, no safener, read-out: AVEFA percentage phytotoxicity. In outline:
as §3

Experiment [8] deals with Echinochloa crus galli, barnyardgrass (ECHCG). The description is as above. The following applies: 360 h, 15 DAA, no safener, read-out: ECHCG percentage phytotoxicity. In outline: as §3
Experiment [9] has as its system Alopecurus myosuroides, blackgrass (ALOMY). The experiment is described as above. Particulars: 360 h, 15 DAA, no safener, read-out: ALOMY percentage phytotoxicity. In outline: as §3
The test system of experiment [10] is Ipomoea hederacea (IPOHE). As to the kind of experiment: Biological Example 1 glasshouse screen, post-emergence herbicidal activity. Particulars: application rate 250 g/ha, evaluated after 13 days. As for the experimental part: (§4) Seeds of a variety of test species were sown in standard soil in pots. After cultivation for one day (pre-emergence) or after 8 days cultivation (post-emergence) under controlled conditions in a glasshouse (at 24/16°C., day/night; 14 hours light; 65% humidity), the plants were sprayed with an aqueous spray solution derived from the formulation of the “technical”(i.e. unformulated) active ingredient in acetone/water (50:50) solution containing 0.5% Tween 20 (polyoxyethylene sorbitan monolaurate, CAS Registry Number 9005-64-5). The test plants were then grown in a glasshouse under controlled conditions in a glasshouse (at 24/16°C., day/night; 14 hours light; 65% humidity) and watered twice daily. After 13 days for pre- or post-emergence, the test was evaluated visually, and an assessed percentage phytotoxicity score given for each herbicidal application on each plant/weed species (with 100%=total damage to plant; 0%=no damage to plant).
(§5) Test plants: Alopecurus myosuroides (ALOMY), Setaria faberi (SETFA), Echinochloa crus-galli (ECHCG), Solanum nigrum (SOLNI), Amaranthus retroflexus (AMARE) and Ipomoea hederacea (IPOHE). ALOMY, SETFA and ECHCG are grassy monocotyledonous weeds. SOLNI, AMARE and IPOHE are dicotyledonous (broadleaved) weeds.

The subject of experiment [11] is Setaria faberi (SETFA). Described as above. Particulars: application rate 250 g/ha, evaluated after 13 days. How it is done:
as §4, §5

Experiment [12] deals with Amaranthus retroflexus (AMARE). Described as above. Particulars: application rate 250 g/ha, evaluated after 13 days. As for the experimental part:
as §4, §5

Experiment [13] concerns Solanum nigrum (SOLNI). The description is as above. Particulars: application rate 250 g/ha, evaluated after 13 days. How it is done: as §4, §5
The test system of experiment [14] is Triticum aestivum, wheat (TRZAW). The experiment can be described thus: Biological Example 3 glasshouse screen, post-emergence, phytotoxicity on wheat. Particulars: 360 h, 15 DAA, no safener, read-out: TRZAW percentage phytotoxicity. In outline: as §3
The test system of experiment [15] is Echinochloa crus-galli (ECHCG). As to the kind of experiment: Biological Example 1 glasshouse screen, pre-emergence herbicidal activity. Particulars: 312 h, application rate 250 g/ha, evaluated after 13 days, read-out: ECHCG percentage phytotoxicity. In outline: as §1
Experiment [16] relates to Alopecurus myosuroides (ALOMY). The description is as above. The following applies: 312 h, application rate 250 g/ha, evaluated after 13 days, read-out: ALOMY percentage phytotoxicity. In outline:
as §1

The test system of experiment [17] is Ipomoea hederacea (IPOHE). The experiment is described as above. Particulars: application rate 250 g/ha, evaluated after 13 days. As for the experimental part:
as §4, §5

Experiment [18] has as its system Setaria faberi (SETFA). The experiment is described as above. Particulars: application rate 250 g/ha, evaluated after 13 days. As for the experimental part: as §4, §5
Experiment [19] has as its system Amaranthus retroflexus (AMARE). The description is as above. The following applies: application rate 250 g/ha, evaluated after 13 days. As for the experimental part: as §4, §5
Experiment [20] deals with Solanum nigrum (SOLNI). The description is as above. Particulars: application rate 250 g/ha, evaluated after 13 days. How it is done:
as §4, §5

For `CC#Cc1cc(C)c(C2C(=O)C3C(C2=O)[C@H]2CC[C@@H]3O2)c(C)c1` (mixture of isomers) [Compound A-18, (1RS,2SR,6RS,7SR)-4-(2,6-dimethyl-4-prop-1-ynylphenyl)-10-oxatricyclo[5.2.1.0^2,6]decane-3,5-dione], the pest or weed control at 250 g/ha in experiment [1], in experiment [2], in experiment [15] and in experiment [16] was 100% throughout. Also, the pest or weed control at 15.625 g/ha in experiment [3] was determined as 100%; in [5] it was 90%. Besides, the pest or weed control at 62.5 g/ha in experiment [3] and in experiment [5] was 100% each time. Further, the results for the SETFA percentage phytotoxicity in the experiment on Setaria faberi (SETFA) [4] (15.625 g/ha application rate) and in the experiment with Setaria faberi (SETFA) [4] (62.5 g/ha application rate) were 70% and 90%, respectively. For the same compound, the pest or weed control at 8 g/ha in experiment [6] (application rate 8 g/ha) worked out at 80%; in [7] (application rate 8 g/ha), 30%; in experiment [8] (application rate 8 g/ha) it was 80%; in experiment [9] (application rate 8 g/ha) it was 70%; in [14] (application rate 8 g/ha), 40%. Also, the IPOHE percentage phytotoxicity in experiment [10] and in [17] was 80% throughout. Besides, the SEFTA percentage phytotoxicity in the experiment with Setaria faberi (SETFA) [11] and in the experiment with Setaria faberi (SETFA) [18] was 100% throughout. For the same compound, the AMARE percentage phytotoxicity in experiment [12] came to 30%; in [19], 100%. For the same compound, the SOLNI percentage phytotoxicity in the experiment on Solanum nigrum (SOLNI) [13] and in the experiment with Solanum nigrum (SOLNI) [20] was 80% each time.
For `Cc1cc(C#CCl)cc(C)c1C1C(=O)C2C(C1=O)[C@H]1CC[C@@H]2O1` (stereo partly shown) [Compound A-17], the pest or weed control at 250 g/ha in experiment [1] came to 100%; in experiment [2] it was 80%; in experiment [15], 100%; in experiment [16] it was 80%. The figures for the pest or weed control at 15.625 g/ha in experiment [3] and in experiment [5] were 100% and 60%, respectively. In addition, the pest or weed control at 62.5 g/ha in experiment [3] worked out at 100%; in [5], 70%. The SETFA percentage phytotoxicity in the experiment with Setaria faberi (SETFA) [4] (15.625 g/ha application rate) and in the experiment on Setaria faberi (SETFA) [4] (62.5 g/ha application rate) was 80% each time. Also, the IPOHE percentage phytotoxicity was 70% in experiment [10] and 80% in [17]. In addition, the SEFTA percentage phytotoxicity in the experiment on Setaria faberi (SETFA) [11] is 90%; with Setaria faberi (SETFA) [18], 100%. Besides, the AMARE percentage phytotoxicity is given as 10% in experiment [12] and 100% in experiment [19]. The SOLNI percentage phytotoxicity in the experiment on Solanum nigrum (SOLNI) [13] was 70%; in the experiment on Solanum nigrum (SOLNI) [20], 80%.
In the case of `Cc1cc(C#CCl)cc(C)c1C1=C(O)CC(Cc2ccccn2)C1=O` (racemic) [Compound A-3, rac-2-(4-Chloroethynyl-2,6-dimethylphenyl)-4-(pyridin-2-ylmethyl)cyclopentane-1,3-dione], the pest or weed control at 250 g/ha in [1] came out at 100%; in experiment [2] it was 90%; in [15], 100%; in experiment [16] it was 90%. In addition, the values for the pest or weed control at 15.625 g/ha in experiment [3] and in experiment [5] were 100% and 90%, respectively. The pest or weed control at 62.5 g/ha in experiment [3] amounted to 100%; in experiment [5] it was 90%. In addition, the results for the SETFA percentage phytotoxicity with Setaria faberi (SETFA) [4] (15.625 g/ha application rate) and in the experiment on Setaria faberi (SETFA) [4] (62.5 g/ha application rate) were 80% and 90%, respectively. Besides, the IPOHE percentage phytotoxicity in experiment [10] is 30%; in [17], 70%. Moreover, the SEFTA percentage phytotoxicity in the experiment with Setaria faberi (SETFA) [11] and in the experiment with Setaria faberi (SETFA) [18] was 100% each time. In addition, the AMARE percentage phytotoxicity in experiment [12] is given as 60%; in experiment [19], 90%. In addition, the values for the SOLNI percentage phytotoxicity in the experiment with Solanum nigrum (SOLNI) [13] and in the experiment on Solanum nigrum (SOLNI) [20] were 70% and 90%, respectively.
With `CC#Cc1cc(C)c(C2=C(O)CCC2=O)c(C)c1` [Compound A-1, 2-(2,6-Dimethyl-4-prop-1-ynylphenyl)cyclopentane-1,3-dione], the pest or weed control at 250 g/ha is 100% in experiment [1], 90% in [2], 100% in experiment [15] and 100% in experiment [16]. Further, the results for the pest or weed control at 15.625 g/ha in experiment [3] and in [5] were 70% and 20%, respectively. The pest or weed control at 62.5 g/ha in [3] stood at 100%; in experiment [5], 80%. Also, the values for the SETFA percentage phytotoxicity in the experiment with Setaria faberi (SETFA) [4] (15.625 g/ha application rate) and with Setaria faberi (SETFA) [4] (62.5 g/ha application rate) were 40% and 60%, respectively. For the same compound, the pest or weed control at 125 g/ha in [6] (application rate 125 g/ha) is 50%; in experiment [7] (application rate 125 g/ha), 0%; in experiment [8] (application rate 125 g/ha) it was 80%; in experiment [9] (application rate 125 g/ha), 70%; in [14] (application rate 125 g/ha), 40%. Moreover, the values for the IPOHE percentage phytotoxicity in [10] and in experiment [17] were 30% and 0%, respectively. The values for the SEFTA percentage phytotoxicity in the experiment on Setaria faberi (SETFA) [11] and in the experiment on Setaria faberi (SETFA) [18] were 70% and 80%, respectively. In addition, the AMARE percentage phytotoxicity in experiment [12] and in [19] was 0% in each case. Besides, the SOLNI percentage phytotoxicity in the experiment on Solanum nigrum (SOLNI) [13] turned out to be 10%; with Solanum nigrum (SOLNI) [20], 0%.
